Measured values reported in the NIST ThermoML archive (doi:10.1021/je0342825).

Assay: xn = mol fraction of the nth substance listed
Conditions: 101.3 kPa, Liquid

O [water] + CC(=O)O
x2 = 0
Conditions	viscosity [mPa·s]
293.15 K	1.003
298.15 K	0.89
303.15 K	0.797

COC(C)=O [methyl ethanoate] + CC(=O)O
Conditions	mass density, 293.15 K [kg/m3]	mass density, 298.15 K [kg/m3]	mass density, 303.15 K [kg/m3]	speed of sound, 293.15 K [m/s]	speed of sound, 298.15 K [m/s]	speed of sound, 303.15 K [m/s]	viscosity, 293.15 K [mPa·s]	viscosity, 298.15 K [mPa·s]	viscosity, 303.15 K [mPa·s]
x2 = 0	933.56	926.98	920.34	1174	1151	1128	0.386	0.367	0.348
x2 = 0.0496	938.74	932.23	925.65	1177	1154	1131	0.401	0.381	0.362
x2 = 0.0956	943.44	936.98	930.46	1177	1155	1133	0.417	0.395	0.376
x2 = 0.195	953.14	946.77	940.34	1177	1155	1133	0.46	0.436	0.412
x2 = 0.3007	963.86	957.58	951.24	1176	1154	1133	0.506	0.48	0.453
x2 = 0.3902	973.23	967.02	960.77	1174	1153	1132	0.552	0.521	0.492
x2 = 0.4937	984.52	978.4	972.24	1172	1151	1131	0.617	0.58	0.547
x2 = 0.5953	996.15	990.1	984.03	1169	1149	1129	0.691	0.646	0.608
x2 = 0.6894	1007.51	1001.55	995.56	1166	1147	1127	0.775	0.725	0.68
x2 = 0.7943	1020.92	1015.05	1009.16	1162	1143	1124	0.894	0.834	0.782
x2 = 0.8987	1034.93	1029.17	1023.39	1156	1138	1120	1.037	0.962	0.896
x2 = 0.9502	1042.19	1036.49	1030.77	1153	1136	1118	1.12	1.037	0.964

CC(=O)O [acetic acid] + CO
Conditions	mass density, 293.15 K [kg/m3]	mass density, 298.15 K [kg/m3]	mass density, 303.15 K [kg/m3]	speed of sound, 293.15 K [m/s]	speed of sound, 298.15 K [m/s]	speed of sound, 303.15 K [m/s]	viscosity, 293.15 K [mPa·s]	viscosity, 298.15 K [mPa·s]	viscosity, 303.15 K [mPa·s]
x1 = 0.0498	811.92	807.17	802.41	1133	1116	1100	0.626	0.583	0.543
x1 = 0.1006	831.39	826.6	821.79	1143	1127	1111	0.676	0.628	0.585
x1 = 0.2016	867.61	862.71	857.79	1162	1146	1130	0.784	0.729	0.678
x1 = 0.2995	899.77	894.77	889.74	1178	1161	1145	0.899	0.825	0.765
x1 = 0.401	929.99	924.88	919.75	1189	1172	1156	1.038	0.954	0.879
x1 = 0.4992	956.37	951.16	945.92	1196	1179	1162	1.161	1.062	0.975
x1 = 0.5996	980.68	975.36	970.01	1198	1181	1164	1.274	1.162	1.062
x1 = 0.6998	1001.88	996.46	991.01	1195	1178	1161	1.352	1.229	1.124
x1 = 0.7969	1020.24	1014.72	1009.19	1187	1170	1153	1.38	1.26	1.151
x1 = 0.9	–	1031.06	1025.45	–	1156	1138	–	1.224	1.126
x1 = 0.9555	1043.82	1038.2	1032.56	1162	1145	1128	1.283	1.177	1.088
x1 = 1	1049.3	1043.65	1038	1149	1132	1115	1.211	1.115	1.034
